Measured values published in publication PMC7696255, “In-Silico Identified New Natural Sortase A Inhibitors Disrupt S. aureus Biofilm Formation” (International Journal of Molecular Sciences, 2020).
Values joined by “and” are separate entries in the source; they are usually repeats but may differ in a detail not shown here. Equal entries are not always repeated. Where two headings read alike, the source gives them in different places.

Legend:
S. aureus sortase A [1] = molecular target: T1, S. aureus sortase A (Staphylococcus aureus, UniProt Q2FV99); experiment: SrtA enzyme inhibition FRET assay, DABCYL-LPETG-EDANS substrate; format: biochemical
T1 construct: purchased AnaSpec AS-72229
T1 sequence (Q2FV99 whole entry): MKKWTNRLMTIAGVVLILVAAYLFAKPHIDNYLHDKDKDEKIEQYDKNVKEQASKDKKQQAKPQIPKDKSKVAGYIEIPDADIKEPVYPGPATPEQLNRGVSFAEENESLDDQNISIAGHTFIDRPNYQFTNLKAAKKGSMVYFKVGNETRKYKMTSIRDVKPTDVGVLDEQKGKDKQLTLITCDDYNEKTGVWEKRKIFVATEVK
Description: (§1) The enzymatic reactions were carried out in black, low-binding polystyrene 384 well plates (Greiner Bio-One). […] SrtA was pre-incubated in the reaction buffer with compounds for 1 h at room temperature prior to the addition of the FRET substrate. Assays were performed in 50 µL reactions with 50 ng of S. aureus sortase A and 25 µM of DABCYL-LPETG-EDANS substrate or 1 µM of 5-FAM/QXL^TM 520 substrate. The inhibitory activity of the compounds was determined by monitoring the rise in fluorescence intensity over 24 h at Ex/Em = 336 nm/490 nm for the DABCYL/EDANS substrate and Ex/Em = 490 nm/520 nm for the 5-FAM/QXL 520 substrate on a Tecan Infinite M1000 Pro reader.
(§2) Raw fluorescence data were corrected for autofluorescence before computing percentage inhibition values. These percentage inhibition values were plotted against compound concentration using GraphPad Prism version 8.0 by nonlinear regression analysis using least squares fit method for IC50 determination. Testing was performed twice to ensure reproducibility of results.

S. aureus sortase A [2] = molecular target: T1, S. aureus sortase A; experiment: SrtA enzyme inhibition FRET assay, 5-FAM/QXL 520 substrate; format: biochemical
Description: as §1, §2

S. aureus ATCC 25923 = experiment: S. aureus whole cell assay (MIC, microbroth dilution); format: cell-based, Staphylococcus aureus; details: Staphylococcus aureus, ATCC25923, 24 h
Description: (§3) Minimum inhibitory concentration (MIC) tests were performed according to procedures of the Clinical Laboratory Standards Institute (CLSI) with minor changes using the microbroth dilution technique in a 384-well setup. Inoculum of each S. aureus strain was prepared by suspending segregated colonies in sterile saline to a 0.5 McFarland standard. An inoculum of 2–8 × 10^5 CFU/mL was incubated with the compounds for 24 h at 37 °C. Gentamicin (data not shown) was incubated in the same manner as the test compounds and served as a positive control. The effect of the compounds on bacterial growth was calculated by quantifying the optical density at 600 nm on a microplate reader (Tecan, Infinite M1000, Salzburg, Austria). Dilutions of the inoculum were cultivated on agar to verify the validity of the inoculum seeding density and absence of contamination. All tests were executed in triplicate during two separate experiments.

[3] = test system: S. aureus ATCC 33591 (MRSA); experiment: as above; format: cell-based, Staphylococcus aureus; details: 24 h
Description: as §3

S. aureus Newman = experiment: as above; format: cell-based, Staphylococcus aureus
Description: as §3

A549 cells = experiment: Mammalian cell cytotoxicity assay (PrestoBlue); format: cell-based, human; details: Homo sapiens, A549, 72 h, read-out: Mammalian cell lines IC50
Description: (§4) A549 and HepG2 cells were seeded at 1500 and 2500 cells per well, respectively, in 384-well microplates and incubated at 37 °C in the presence of 5% CO2. The next day, cells were treated with compounds then incubated for an additional 72 h. To assess the cytotoxic effect of the compounds PrestoBlue cell viability reagent (Life Technologies, Carlsbad, CA, USA) was used. After the 72 h incubation with compounds, the 384-well assay plates were incubated with this viability indicator dye for 2 h (A549) and 4 h (HepG2) before fluorescence reading at Ex/Em = 560 nm/590 nm on the Tecan Infinite M1000 Pro reader. Puromycin (data not shown) was used as the positive control against both cell lines. All tests were executed in triplicate on two separate experiments.

HepG2 cells = experiment: Mammalian cell cytotoxicity assay (PrestoBlue); format: cell-based, human; details: Homo sapiens, HepG2, 72 h, read-out: Mammalian cell lines IC50
Description: as §4

[4] = test system: S. aureus ATCC 33591 (MRSA) biofilm formation; experiment: Biofilm inhibitory assay (crystal violet), biofilm formation; format: cell-based, Staphylococcus aureus; details: S. aureus ATCC 33591 (MRSA), biofilm formation, read-out: Biofilm Inhibition IC50
Description: (§5) The effectiveness of SrtA inhibitors in reducing biofilm formation and growth was assessed using the crystal violet (CV) biofilm assay with the following modifications. TSB with 2% glucose (TSB without glucose for E. coli) was inoculated with 10^5 CFU/mL of S. aureus and E. coli overnight cultures. A total of 90µl of this cell suspension was then dispensed into 96-well microtiter plates containing 10 µL of different concentrations of the SrtA inhibitors. After 24 h growth at 37 °C the plates were washed with PBS to remove unbound cells and heat fixed at 60 °C for 30 min. Next, the wells were stained with 0.1% crystal violet solution for 15 min at room temperature. At the completion of the incubation plates were washed 3 times with PBS and dried. Then the crystal violet dye from the biofilm was solubilized with 200 µL of DMSO. A total of 100 µL of this solution was then moved to a new microtiter plate for absorbance measurement at 595 nm. For pre-formed biofilm assay, the plates were prepared and incubated as mentioned earlier, without SrtA inhibitors. After 24 h incubation, the culture supernatant was removed gently and biofilm carefully washed with sterile PBS. Next, 10 µL of different concentrations of SrtA inhibitors with 90 µL of TSB with 2% glucose were added carefully into the wells and incubated at 37 °C for 24 h. The amount of crystal violet staining of biofilm was measured as described above. The results were reported as percent inhibition normalized to the wild type control. Two independent experiments were performed in triplicate to ensure reproducibility.

[5] = test system: S. aureus Newman biofilm formation; experiment: as above; format: cell-based, Staphylococcus aureus; details: CV assay; for IC50: biofilm formation, read-out: Biofilm Inhibition IC50
Description: as §5

[6] = test system: adherence of S. aureus Newman to fibrinogen; experiment: Fibrinogen binding assay; format: cell-based, Staphylococcus aureus; details: for IC50: read-out: Fibrinogen adherence Inhibition IC50; for concentration giving ≥90% prevention of S. aureus Newman adherence to fibrinogen: compared to untreated wildtype strain
Description: Fibrinogen binding assay was completed as described but with slight revision. A flat-bottom 96-well plate was covered with fibrinogen protein by adding 50 µL of 20 µg/mL of fibrinogen protein from bovine plasma diluted in saline and incubated at 4 °C for 24 h. The coated plates were gently rinsed twice with PBS and blocked for 60 min with 4% bovine serum albumin (BSA). The plates were then washed 3 times with PBS. For this assay, S. aureus Newman strain was cultivated in TSB at 37 °C to exponential phase (OD600 = 0.5) and then the bacterial culture was incubated with various concentrations of test compound or control for 2.5 h. Then the cells were pelleted by centrifugation at 10,000× g for 10 min, the supernatants were removed and the cell pellets stored at −20 °C. The following day, cell pellets were suspended in PBS and dispersed in 100 μL aliquots to distinct wells of fibrinogen-coated 96-well plates. After 2 h of growth at 37 °C, the bacterial supernatant was discarded and the wells were rinsed gently with 150 µl PBS. Then the bacterial cells were fixed with 2% (v/v) glutaraldehyde and incubated for 30 min at 25 °C. After a wash with PBS, bound cells were stained with 0.1% crystal violet dye for 15 min. Plates were rinsed twice again with PBS, enclosed with aluminum foil, then stored at room temperature to dry overnight. On the next day absorbance was measured at 570 nm. The results were described as the percent of adhesion inhibition normalized to the wild type control. Two independent experiments were performed in triplicate to ensure reproducibility.

[7] = test system: S. aureus Newman pre-formed biofilms; experiment: Biofilm inhibitory assay (crystal violet), pre-formed biofilms; format: cell-based, Staphylococcus aureus; details: pre-formed biofilms, CV assay, read-out: Biofilm Inhibition IC50
Description: as §5

`CC(/C=C/[C@@]1(C)[C@H](C)CCC(=O)[C@@H]1C)=C\Cc1c(O)c(Cl)c(C)c(C=O)c1O` [Compound N1321, Ascochlorin] was tested, and the IC50 (S. aureus sortase A [1]; Sortase A IC50, DABCYL-LPETG-EDANS substrate, 4 h) was > 200 µM and the IC50 (S. aureus sortase A [2]; Sortase A IC50, 5-FAM/QXL substrate, 10 min) was > 200 µM.

For `COc1c(C)c2c(c(O)c1C/C=C(\C)CCC(=O)OC1c3cc(O)cc(O)c3C(=O)OC1(C)O)C(=O)OC2` (centres unmarked) [Compound N1871, Antibiotic F 13459], the IC50 (S. aureus sortase A [1]) was > 200 µM and the IC50 (S. aureus sortase A [2]) was > 200 µM.

`COc1ccc(CC(N)C(=O)NC2C(C(=O)O)OC(n3cnc4c(N)ncnc43)C2O)cc1` (centres unmarked) [Compound N2238, Chryscandin] was tested, and the IC50 (S. aureus sortase A [1]) was > 200 µM and the IC50 (S. aureus sortase A [2]) was > 200 µM.

For `CC1=CC2c3c(cc4oc5cc(C)cc(O)c5c4c3C)OC3(O)C(=O)c4oc5cc(C)cc(O)c5c4C(C)(C1)C23` (centres unmarked) [Compound N2450, Asticolorin B], the IC50 (S. aureus sortase A [1]; read-out: Sortase A IC50, DABCYL-LPETG-EDANS substrate, 4 h) was > 200 µM and the IC50 (S. aureus sortase A [2]; read-out: Sortase A IC50, 5-FAM/QXL substrate, 10 min) was > 200 µM.

`COc1cc(/C=C/C(=O)CC(=O)/C=C/c2ccc(O)c(OC)c2)ccc1O` [Curcumin, reference compound] was tested, and the MIC (S. aureus ATCC 25923) was > 200 µM, the MIC ([3]; Staphylococcus aureus) was > 200 µM and the MIC (S. aureus Newman; Staphylococcus aureus, NEWMAN, 24 h) was > 200 µM. The “growth inhibition of S. aureus” value (S. aureus Newman; at 200 µM, strain not given) was “did not inhibit the growth”, the IC50 (A549 cells) was 48.2 ± 12.7 µM and the IC50 (HepG2 cells) was 39.6 ± 5.3 µM. The IC50 ([4]; Staphylococcus aureus) was > 150 µM, the “concentration giving >90% inhibition of biofilm formation” value [5] was 174 µM and the IC50 ([5]; Staphylococcus aureus, NEWMAN) was 51.2 ± 4.4 µM. The IC50 [5] was 51 µM, the IC50 ([6]; Staphylococcus aureus, NEWMAN) was 46.5 ± 6.2 µM and the “concentration giving ≥90% prevention of S. aureus Newman adherence to fibrinogen” value [6] was > 170 µM.

In the case of `O=C(O)c1cc[c]([Hg][OH])cc1` [p-HMB, p-hydroxymercuribenzoic acid, reference compound], the IC50 (S. aureus sortase A [1]; DABCYL-LPETG-EDANS substrate, 4 h, read-out: Sortase A IC50) is reported as 0.2 ± 0.07 µM, the IC50 (S. aureus sortase A [2]; 5-FAM/QXL substrate, 10 min, read-out: Sortase A IC50) is reported as 0.18 ± 0.08 µM and the “S. aureus MIC” value [3] is reported as 6.7 ± 1.5 µM. The IC50 [4] was > 150 µM, the “concentration giving >90% inhibition of biofilm formation” value [5] was 22 µM and the IC50 [5] was 11.9 µM and 12 µM. For the same compound, the IC50 [7] was 43 ± 3.6 µM, the IC50 ([6]; S. aureus Newman) was 37.4 ± 5.3 µM and the “concentration giving ≥90% prevention of S. aureus Newman adherence to fibrinogen” value [6] was > 170 µM.
